{
  "source": "paper PMC12266748",
  "about": "“A Xanthine Derivative With Novel Heat Shock Protein 90‐Alpha Inhibitory and Senolytic Properties” (Aging Cell, 2025)",
  "key": {"[1]": {"system": "MCF7 cells", "assay": "Dose-response curves on proliferating and Tamoxifen-induced senescent MCF7 (Incucyte)", "type": "cell-based, Homo sapiens", "description": "IMR90 and WI38 lung fibroblasts were purchased from ECACC‐Merck. Human bone marrow (BM)‐derived mesenchymal stromal cells (MSCs) were purchased from Lonza. Human umbilical vein endothelial cells (HUVECs) are primary cells obtained from a pool of donors purchased from Clonetics (Lonza). Murine ear fibroblasts (MearFs) were obtained from C57BL/6J mice maintained in the INRCA “Specific Pathogen Free” (SPF) animal facility. MCF7 breast cancer cells were purchased from ATCC. For dose–response curves, IMR90 and WI38 were induced to senescence through replicative passages; MSCs, HUVECs, and MearFs senescence was induced with Doxorubicin; MCF7 senescence was induced with 4‐Hydroxytamoxifen (Lee et al. [2014]). The EC50 was calculated using GraphPad Prism 10 software. All treatment specifications are reported in the extended section.\nMCF7 cell line (ATCC; HTB-22, Homo sapiens, breast cancer) was purchased from ATCC; cells were grown in MEM medium (Corning, New York, USA, #15-010-CVR) supplemented with 10% FBS (Gibco, Invitrogen, Carlsbad, CA, USA, #10270106), 1% glutamine (Corning #25005-CI), 1% penicillin and streptomycin (Corning #30002-CI). Cells were incubated at 37 °C with 5% CO2. Senescent status induction: MCF7 were plated 24 h before the treatment with 4-Hydroxytamoxifen (TAM) 10 μM to induce the senescence described by (Lee et al. 2014). Control cultures were treated with equal volumes of 75% ethanol as the vehicle. The treatment with TAM lasts 96 h, after which the cells have been washed and treated with the senolytic drugs K5 10 µM for another 96 h. The treatment with the senolytic compounds has been renewed at 48 h. Cell mortality and vitality curves after treatment with K5 (10 μM, orange) or Vehicle (DMSO, grey) were monitored using the Incucyte live-cell Analysis system (Sartorius, Goettingen, Germany). The estimated Senolytic index (SI) was calculated as the ratio between the EC50 in proliferating cells and the EC50 in senescent cells, extrapolated using GraphPad Prism 10 software."}, "[2]": {"system": "MCF7 cells", "assay": "Immunofluorescence of Cytochrome C / mitochondria colocalization in senescent MCF7", "type": "cell-based, Homo sapiens", "settings": "MCF7, TAM 10 µM 96 h, then 72 h K5 10 µM or Dasatinib 1 µM", "method": "Treated/untreated senescent IMR90 and MCF7 cells were fixed, permeabilized, and stained following suppliers' recommendations. Images were acquired using an Olympus IX83 research inverted microscope (IF) and a phase microscopy Nikon ECLIPSE Ei R (IHC) at 40× MAG.\nImmunofluorescence staining. Treated/untreated IMR90 and MCF7 cells were cultured in LabTek II chamber slides (Nunc, Biosigma). At the final time point, cells were stained with 500 nM MitoTracker Orange (Thermo Fisher Scientific) for 30 min at 37°C and then fixed in 4% PFA (Merck) for 10 min, RT, and permeabilized with 0.1% Triton solution (Merck) for 30 min at RT. Samples were blocked in 5% BSA for 90 min, incubated overnight at 4°C with primary antibody against Cytochrome C (1:50, RbMAb, Abcam), and 1h at RT with secondary antibody Alexa Fluor 488 goat anti-Rb (1:200, Thermo Fisher Scientific). Nuclei were stained with DAPI (Cell Signaling) for 10 min at RT, and ProLong Glass Antifade Mountant (Thermo Fisher Scientific) was used to seal coverslips. Images were acquired using an Olympus IX83 research inverted microscope at 40X magnifications."}, "[3]": {"system": "Drosophila melanogaster", "assay": "Drosophila melanogaster lifespan assay", "type": "in vivo", "method": "Experiments were carried out with wild‐type Canton‐S Drosophila melanogaster, originating (Stock #64349) from the Bloomington Drosophila Stock Centre (Indiana University). Flies were reared on Nutri‐Fly Bloomington Formulation food medium (Genesee Scientific). Vials containing only fresh food were alternated with vials containing food supplemented with K5. The number of living flies was counted every 2–3 days. Detailed protocols are reported in the extended section.\nDrosophila melanogaster maintenance and lifespan assays. All experiments were carried out with wild-type Canton-S Drosophila melanogaster. Canton-S flies originated (Stock #64349) from the Bloomington Drosophila Stock Centre (Indiana University, Bloomington, IN, USA). Flies were reared on Nutri-Fly Bloomington Formulation food medium (Genesee Scientific, El Cajon, CA, USA) prepared using 176 g of Nutri-Fly per liter of distilled H2O. After cooling to 70°C, 4.8 mL of propionic acid (Merck KGaA, Darmstadt, Germany) per liter of food was added. Flies were maintained at constant temperature (25.0 ± 0.2°C) with 60% relative humidity on a 12 h:12 h 300 lux light-dark cycle generated by a 4000°K LED lamp (Fridge 1.5W, Ecoman Italia S.r.l., Frascati, Italy).\nFor lifespan assays, newly enclosed Drosophila melanogaster (1 to 2 days old) were collected and placed separately in vials (each containing 10 male and 10 female flies). Two experiments were performed. In the first experiment, 300 flies were randomly divided into three groups (CTRL, K5 10 µg/mL, and K5 100 µg/mL). Vials containing only fresh food (Nutri-Fly Bloomington Formulation food medium) were alternated 3 times a week with vials containing food supplemented with K5. The K5 was dissolved in DMSO and then diluted 1:10 in corn oil. 5 µL of corn oil (containing 0, 10 µg, or 100 µg of K5) was added to each mL of freshly prepared Nutri-Fly Bloomington Formulation food medium. In the second experiment, 900 flies were divided by sex into CTRL group and K5 10 µg/mL treated group. […] All experiments counted the number of living flies every 2–3 days."}},
  "note": "Like-named read-outs stand apart in the source and are kept apart here.",
  "data": [
    {"smiles": "Cc1ccccc1-n1c(=O)n(Cc2ccccc2)c(=O)c2[nH]cnc21", "note": "[Compound K5, 1-benzyl-3-(2-methylphenyl)-7H-purine-2,6-dione]", "values": [
      {"measurement": "EC50", "setting": "[1]; Homo sapiens, MCF7, 96 h, MCF7, K5 96 h, read-out: EC50 proliferating cells", "result": 167, "unit": "µM"},
      {"measurement": "EC50", "setting": "[1]; Homo sapiens, MCF7, 96 h, MCF7, TAM 10 μM 96 h, then K5 96 h, read-out: EC50 senescent cells", "result": 24.4, "unit": "µM"},
      {"measurement": "Senolytic evidence (no, partly/yes)", "setting": "[1]; MCF7, 4-hydroxy-tamoxifen", "result": "Yes"},
      {"measurement": "EC50", "setting": "[1]; MCF7, K5 96 h, read-out: EC50 proliferating cells", "result": 167, "unit": "µM"},
      {"measurement": "EC50", "setting": "[1]; MCF7, TAM 10 μM 96 h, then K5 96 h, read-out: EC50 senescent cells", "result": 24, "unit": "µM"},
      {"measurement": "Senolytic index (estimated)", "setting": "[1]; MCF7, SI = EC50 in proliferating cells/EC50 senescent cells", "result": 7},
      {"measurement": "Cytochrome C / mitochondria colocalization, Overlap R (OR)", "setting": "[2]; TAM + Vehicle OR = 0.978", "result": 0.896},
      {"measurement": "Cytochrome C / mitochondria colocalization, Pearson's Rr (PRr)", "setting": "[2]; TAM + Vehicle PRr = 0.961", "result": 0.810},
      {"measurement": "effect on lifespan, preliminary treatment", "setting": "[3]; K5 10 μg/mL and 100 μg/mL, 100 flies per group, p = 0.034", "result": "significant overall difference in lifespan"},
      {"measurement": "increase of average lifespan compared to controls", "setting": "[3]; K5 10 μg/mL in food from day 20, n = 884", "result": 6.63, "unit": "%"},
      {"measurement": "average lifespan of treated flies", "setting": "[3]; K5 10 μg/mL in food from day 20, n = 884, controls 47.54 days ± 0.74 SE", "result": 50.69, "unit": "days"}
    ]}
  ]
}
